The values that follow come from patent publication US9833497B2, “Human originated EGF domain proteins and use of the same” (CHENGDU SOURCEBIO LIMITED-LIABILITY COMPANY, priority 2013, dated 2017).

What is called MIC is the least concentration at which growth counts as inhibited. The low end stands for inhibition by little substance, the high end for a need for much substance.

Format in all cases: cell-based
In one assay the test system is Citrobacter diversus. The assay is described as follows: MIC against Gram-negative bacteria: Citrobacter diversus. Conditions: 5×10^5 CFU/mL; for MIC (μg/mL) C. diversus / MIC against C. diversus: Citrobacter diversus. In a few lines:
(§1)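 Purified recombinant human EGF domain proteins are tested by broth dilution in LB against a 5×10^5 CFU/mL inoculum, with two-fold serial dilutions run in triplicate. Plates are incubated at 37° C with shaking, and the MIC is read as the lowest protein concentration without growth.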

In a further assay the test system is Proteus vulgaris. The assay is described as follows: MIC against Gram-negative bacteria: Proteus vulgaris. Particulars: 5×10^5 CFU/mL; for MIC (μg/mL) P. vulgaris / MIC against P. vulgaris: Proteus vulgaris. In outline: as §1
A further assay relates to Serratia marcescens. The assay is described as follows: MIC against Gram-negative bacteria: Serratia marcescens. Particulars: 5×10^5 CFU/mL; for MIC (μg/mL) S. marcescens / MIC against S. marcescens: Serratia marcescens. In a few lines:
as §1

A further assay relates to E. coli BL21. The assay is described as follows: MIC against Gram-negative bacteria: E. coli BL21. Conditions: 5×10^5 CFU/mL. In a few lines: as §1
The next assay has as its system E. coli DH5α. The assay is described as follows: Antibacterial activity: MIC and growth curve against E. coli DH5α in 96-well plate. Particulars: minimal inhibitory concentration against E. coli DH5α; 96-well plate, 5×10^5 CFU/mL, 37° C., judged after 8 h. In outline: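 Log-phase bacteria (OD600 ~0.5) resuspended in LB at 5×10^5 CFU/mL, exposed to recombinant protein at 50, 25, 12.5 μg/mL final in triplicate, 37 °C shaking at 175 rpm. OD600 read every 30 min; MIC is lowest concentration showing no growth.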

A further assay has as its system Enterobacter cloacae. In words: MIC against Gram-negative bacteria: Enterobacter cloacae. Conditions: 5×10^5 CFU/mL; for MIC (μg/mL) E. cloacae / MIC against E. cloacae: Enterobacter cloacae. In a few lines: as §1
In another assay the test system is Aeromonas hydrophila. The assay is described as follows: MIC against Gram-negative bacteria: Aeromonas hydrophila. Particulars: 5×10^5 CFU/mL; for MIC (μg/mL) A. hydrophila / MIC against A. hydrophila: Aeromonas hydrophila. In a few lines:
as §1

A further assay deals with Moraxella catarrhalis. The assay is described as follows: MIC against Gram-negative bacteria: Moraxella catarrhalis. Particulars: 5×10^5 CFU/mL; for MIC (μg/mL) M. catarrhalis / MIC against M. catarrhalis: Moraxella catarrhalis. In a few lines:
as §1

For the next assay, the system named is Pseudomonas aeruginosa. The assay is described as follows: MIC against Gram-negative bacteria: Pseudomonas aeruginosa. Conditions: 5×10^5 CFU/mL; for MIC (μg/mL) P. aeruginosa / MIC against P. aeruginosa: Pseudomonas aeruginosa. In outline:
as §1

For the next assay, the system named is Klebsiella pneumonia. The assay is described as follows: MIC against Gram-negative bacteria: Klebsiella pneumonia. Particulars: 5×10^5 CFU/mL; for MIC (μg/mL) K. pneumonia / MIC against K. pneumonia: Klebsiella pneumonia. In a few lines: as §1
The subject of a further assay is Proteus mirabilis. The assay is described as follows: MIC against Gram-negative bacteria: Proteus mirabilis. Conditions: 5×10^5 CFU/mL; for MIC (μg/mL) P. mirabilis / MIC against P. mirabilis: Proteus mirabilis. In outline: as §1
The mark [1] stands for this setting: 10 h cultivation at 37° C., two-fold serial dilution.

Consider “PRT673 (DVDECLDESNCRNGVCENTRGGYRCACTPPAEYSPAQRQCL; listed as Homo sapiens)”, for which the “MIC C. diversus” value against Citrobacter diversus (96-well plate, 37° C., 10 h) stood at 25 µg/mL. The “MIC P. vulgaris” value in the assay with Proteus vulgaris (96-well plate, 37° C., 10 h) came out at 12.5 µg/mL. Further, the “MIC S. marcescens” value in the assay with Serratia marcescens (96-well plate, 37° C., 10 h) was determined as 50 µg/mL. For the same substance, the “MIC E. coli BL21” value against E. coli BL21 (96-well plate, 37° C., 10 h) came out at 12.5 µg/mL. The substance further had an MIC against E. coli DH5α of 50 µg/mL. Besides, in the assay on Enterobacter cloacae (96-well plate, 37° C., 10 h), the “MIC E. cloacae” value is 25 µg/mL. The “MIC A. hydrophila” value against Aeromonas hydrophila (96-well plate, 37° C., 10 h) was 50 µg/mL. Besides, the “MIC M. catarrhalis” value against Moraxella catarrhalis (96-well plate, 37° C., 10 h) amounted to 25 µg/mL. In the assay with Pseudomonas aeruginosa (96-well plate, 37° C., 10 h), the “MIC P. aeruginosa” value amounted to 50 µg/mL. Also, the “MIC K. pneumonia” value against Klebsiella pneumonia (96-well plate, 37° C., 10 h) was 50 µg/mL. Further, in the assay on Proteus mirabilis (96-well plate, 37° C., 10 h), the “MIC P. mirabilis” value came out at 50 µg/mL.

As for “PRT110 (DIDECASSNGTLCAHICINTLGSYRCECREGYIREDDGKTCT; listed as Homo sapiens)”, the “MIC (μg/mL) C. diversus” value with Citrobacter diversus (96-well plate, 37° C., 10 h) was determined as 12.5 µg/mL. In addition, the “MIC (μg/mL) P. vulgaris” value against Proteus vulgaris (96-well plate, 37° C., 10 h) worked out at 12.5 µg/mL. In addition, in the assay on Serratia marcescens (96-well plate, 37° C., 10 h), the “MIC (μg/mL) S. marcescens” value came to 12.5 µg/mL. Also, the “MIC (μg/mL) E. coli BL21” value against E. coli BL21 (96-well plate, 37° C., 10 h) came out at 12.5 µg/mL. Moreover, the MIC against E. coli DH5α is 25 µg/mL. For the same substance, the “MIC (μg/mL) E. cloacae” value against Enterobacter cloacae (96-well plate, 37° C., 10 h) is 12.5 µg/mL. For the same substance, the “MIC (μg/mL) A. hydrophila” value with Aeromonas hydrophila (96-well plate, 37° C., 10 h) came out at 50 µg/mL. Besides, the “MIC (μg/mL) M. catarrhalis” value against Moraxella catarrhalis (96-well plate, 37° C., 10 h) was 50 µg/mL. Besides, in the assay on Pseudomonas aeruginosa (96-well plate, 37° C., 10 h), the “MIC (μg/mL) P. aeruginosa” value was found to be 25 µg/mL. Besides, in the assay on Klebsiella pneumonia (96-well plate, 37° C., 10 h), the “MIC (μg/mL) K. pneumonia” value stood at 50 µg/mL. The “MIC (μg/mL) P. mirabilis” value in the assay on Proteus mirabilis (96-well plate, 37° C., 10 h) came out at 12.5 µg/mL.

“PRT34 (ACHPGFYGPDCKLRCSCNNGEMCDRFQGCLCSPGWQGLQCE; listed as Homo sapiens)”: the “MIC (μg/mL) C. diversus” value against Citrobacter diversus (96-well plate, 37° C., 10 h) came out at 25 µg/mL. Moreover, the “MIC (μg/mL) P. vulgaris” value against Proteus vulgaris (96-well plate, 37° C., 10 h) came out at 25 µg/mL. Also, in the assay with Serratia marcescens (96-well plate, 37° C., 10 h), the “MIC (μg/mL) S. marcescens” value worked out at 12.5 µg/mL. Also, the “MIC (μg/mL) E. coli BL21” value with E. coli BL21 (96-well plate, 37° C., 10 h) amounted to 25 µg/mL. Also, the MIC in the assay with E. coli DH5α was 100 µg/mL. For the same substance, the “MIC (μg/mL) E. cloacae” value against Enterobacter cloacae (96-well plate, 37° C., 10 h) was determined as 12.5 µg/mL. For the same substance, in the assay with Aeromonas hydrophila (96-well plate, 37° C., 10 h), the “MIC (μg/mL) A. hydrophila” value worked out at 25 µg/mL. Further, in the assay on Moraxella catarrhalis (96-well plate, 37° C., 10 h), the “MIC (μg/mL) M. catarrhalis” value turned out to be 12.5 µg/mL. In addition, in the assay with Pseudomonas aeruginosa (96-well plate, 37° C., 10 h), the “MIC (μg/mL) P. aeruginosa” value is 25 µg/mL. In the assay on Klebsiella pneumonia (96-well plate, 37° C., 10 h), the “MIC (μg/mL) K. pneumonia” value was found to be 12.5 µg/mL. In addition, the “MIC (μg/mL) P. mirabilis” value in the assay with Proteus mirabilis (96-well plate, 37° C., 10 h) was determined as 12.5 µg/mL.

For the substance “PRT1277 (ETCAVNNGGCDSKCHDAATGVHCTCPVGFMLQPDRKTCK; listed as Homo sapiens)”, the “MIC against C. diversus” value in the assay with Citrobacter diversus (96-well plate, 37° C., 10 h) worked out at 12.5 µg/mL. The “MIC against P. vulgaris” value against Proteus vulgaris (96-well plate, 37° C., 10 h) came to 25 µg/mL. For the same substance, in the assay with Serratia marcescens (96-well plate, 37° C., 10 h), the “MIC against S. marcescens” value was 12.5 µg/mL. Further, in the assay with E. coli BL21 (96-well plate, 37° C., 10 h), the “MIC against E. coli BL21” value was found to be 50 µg/mL. In the assay with E. coli DH5α, this substance had an MIC of 12.5 µg/mL. The “MIC against E. cloacae” value against Enterobacter cloacae (96-well plate, 37° C., 10 h) was 12.5 µg/mL. Moreover, the “MIC against A. hydrophila” value against Aeromonas hydrophila (96-well plate, 37° C., 10 h) was 50 µg/mL. The “MIC against M. catarrhalis” value against Moraxella catarrhalis (96-well plate, 37° C., 10 h) was found to be 25 µg/mL. Also, the “MIC against P. aeruginosa” value in the assay on Pseudomonas aeruginosa (96-well plate, 37° C., 10 h) came out at 12.5 µg/mL. The “MIC against K. pneumonia” value with Klebsiella pneumonia (96-well plate, 37° C., 10 h) was 50 µg/mL. Further, the “MIC against P. mirabilis” value with Proteus mirabilis (96-well plate, 37° C., 10 h) is 12.5 µg/mL.

Turning to “PRT1233 (ISEPCPSYCSGHGDCISGVCFCDLGYTAAQGTCV; listed as Homo sapiens)”, in the assay with Citrobacter diversus (96-well plate, 37° C., 10 h), the “MIC against C. diversus” value is 12.5 µg/mL. Further, the “MIC against P. vulgaris” value in the assay with Proteus vulgaris (96-well plate, 37° C., 10 h) is 12.5 µg/mL. In addition, the “MIC against S. marcescens” value in the assay with Serratia marcescens (96-well plate, 37° C., 10 h) worked out at 25 µg/mL. The “MIC against E. coli BL21” value against E. coli BL21 (96-well plate, 37° C., 10 h) amounted to 12.5 µg/mL. Further, the MIC in the assay with E. coli DH5α was 25 µg/mL. Moreover, the “MIC against E. cloacae” value in the assay with Enterobacter cloacae (96-well plate, 37° C., 10 h) came out at 12.5 µg/mL. Moreover, the “MIC against A. hydrophila” value in the assay on Aeromonas hydrophila (96-well plate, 37° C., 10 h) worked out at 50 µg/mL. In addition, the “MIC against M. catarrhalis” value with Moraxella catarrhalis (96-well plate, 37° C., 10 h) was found to be 50 µg/mL. Further, the “MIC against P. aeruginosa” value with Pseudomonas aeruginosa (96-well plate, 37° C., 10 h) was determined as 25 µg/mL. Moreover, the “MIC against K. pneumonia” value against Klebsiella pneumonia (96-well plate, 37° C., 10 h) was 50 µg/mL. Besides, in the assay on Proteus mirabilis (96-well plate, 37° C., 10 h), the “MIC against P. mirabilis” value was 25 µg/mL.

On to “PRT1120 (DEDECASSPCQHGGRCLQRSDPALYGGVQAAFPGAFSFRHAAGFLCHCPPGFEGADCG; listed as Homo sapiens)”, for which, in the assay on Citrobacter diversus (setting [1]), the “MIC C. diversus” value was found to be 50 µg/mL. For the same substance, in the assay with Proteus vulgaris (setting [1]), the “MIC P. vulgaris” value turned out to be 12.5 µg/mL. Moreover, the “MIC S. marcescens” value with Serratia marcescens (setting [1]) was found to be 12.5 µg/mL. Further, the “MIC E. coli BL21” value in the assay on E. coli BL21 (setting [1]) worked out at 12.5 µg/mL. In addition, in the assay on E. coli DH5α, the MIC is 25 µg/mL. For the same substance, the “MIC E. cloacae” value against Enterobacter cloacae (setting [1]) was found to be 25 µg/mL. The “MIC A. hydrophila” value against Aeromonas hydrophila (setting [1]) worked out at 12.5 µg/mL. The “MIC M. catarrhalis” value against Moraxella catarrhalis (setting [1]) stood at 12.5 µg/mL. Moreover, in the assay on Pseudomonas aeruginosa (setting [1]), the “MIC P. aeruginosa” value amounted to 25 µg/mL. For the same substance, the “MIC K. pneumonia” value against Klebsiella pneumonia (setting [1]) worked out at 50 µg/mL. Further, in the assay with Proteus mirabilis (setting [1]), the “MIC P. mirabilis” value is 50 µg/mL.
